Source: PMC5054527, “Mechanism of high affinity inhibition of the human urate transporter URAT1” (Scientific Reports, 2016)
Changes are numbered by the printed parent chain. Read-outs that look alike come from different tables or passages of the source.

How the values were obtained:
Experiment in all cases: URAT1 uric acid transport activity assay
Type in all cases: cell-based
[1] = biological target: T1, r-V474M rURAT1 point mutant (Rattus norvegicus, UniProt Q3ZAV1, V474M)
T1 construct: expressed in transfected cells; host or cells: HEK-293T
T1 sequence (Q3ZAV1 1-553 V474M): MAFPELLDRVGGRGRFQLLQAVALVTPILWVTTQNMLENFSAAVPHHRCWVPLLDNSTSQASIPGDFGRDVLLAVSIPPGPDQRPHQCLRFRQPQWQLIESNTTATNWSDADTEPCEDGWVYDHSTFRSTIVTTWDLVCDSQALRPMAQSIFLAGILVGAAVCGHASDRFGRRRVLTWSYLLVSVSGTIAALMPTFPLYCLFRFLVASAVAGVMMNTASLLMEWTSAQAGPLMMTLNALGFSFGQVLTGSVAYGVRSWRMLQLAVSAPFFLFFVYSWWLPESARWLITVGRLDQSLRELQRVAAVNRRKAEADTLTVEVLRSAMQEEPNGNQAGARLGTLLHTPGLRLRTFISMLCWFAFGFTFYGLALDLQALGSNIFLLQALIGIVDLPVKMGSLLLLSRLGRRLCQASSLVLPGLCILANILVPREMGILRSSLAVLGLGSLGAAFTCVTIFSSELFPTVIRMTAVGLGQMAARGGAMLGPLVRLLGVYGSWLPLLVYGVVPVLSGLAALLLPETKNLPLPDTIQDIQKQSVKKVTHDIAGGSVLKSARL
Text: (§1) hURAT1 (GenBank BC053348.1) and rURAT1 (NCBI NM_001034943.1) genes were purchased from Origene Technologies, Inc. and subcloned into pCMV6/neo using NotI, creating pCMV6/neo-hURAT1 and pCMV6/neo-rURAT1. Mutants were produced by polymerase chain reaction (PCR) or site-directed mutagenesis using the QuikChange Lightning Multi Site-Directed Mutagenesis Kit (Agilent Technologies). […] Detailed methods are provided in Supplementary Methods, and primers are listed in Supplementary Table 1. […] Residues in rURAT1 and hOAT1 that correspond to the residues in hURAT1 were identified from aligned protein sequences (Supplementary Fig. 1)[50].
(§2) DNA (10 μg) was mixed with 30 μl of DreamFect Gold (Boca Scientific) in 2 ml OptiMem (Life Technologies). After 20 minutes, 18 ml of media containing 2 × 10^7 cells in suspension was added and mixed, and 200 μl per well were plated onto white clear-bottomed poly-D-lysine coated 96-well plates (BD Biosciences). The cells were assayed the following day.
(§3) Compounds were serially diluted into assay buffer and added to the cells for 5 minutes prior to addition of radiolabelled uric acid substrate. URAT1-expressing cells were incubated with 100 μM ^14C-uric acid for 10 minutes. […] Each treatment was measured in triplicate.
(§4) Unlabelled uric acid was prepared at a 20 mM stock just prior to use in a solution containing 20 mM dibasic potassium phosphate and 20 mM potassium hydroxide.
(§5) Nonlinear regression analyses using GraphPad Prism software were used to calculate the potency of URAT1 inhibitors (IC50 values) from log (inhibitor) versus response - variable slope (four parameters) equations. Statistical significance was assessed using Student’s unpaired t-tests.

[2] = biological target: T2, r-T32C rURAT1 point mutant (Rattus norvegicus, UniProt Q3ZAV1, T32C)
T2 sequence (Q3ZAV1 1-553 T32C): T1 sequence (Q3ZAV1 1-553 V474M) with T32C, M474V
Text: as §1, §2, §3, §4, §5

[3] = biological target: T3, r-T26V rURAT1 point mutant (Rattus norvegicus, UniProt Q3ZAV1, T26V)
T3 sequence (Q3ZAV1 1-553 T26V): T1 sequence (Q3ZAV1 1-553 V474M) with T26V, M474V
Text: as §1, §2, §3, §4, §5

Compound: CCc1oc2ccccc2c1C(=O)c1cc(Br)c(O)c(Br)c1 [benzbromarone]
- IC50 [1]: 17 ± 2.2 µM
- IC50 [2]: 24 ± 4 µM
- IC50 [3]: 26 ± 4.4 µM

Compound: O=C(O)CSc1nnc(Br)n1-c1ccc(C2CC2)c2ccccc12 [lesinurad, 2-((5-bromo-4-(4-cyclopropylnaphthalen-1-yl)-4H-1,2,4-triazol-3-yl)thio)acetic acid]
- IC50 ([1]; r-V474M, MES pH 5.5, 100 μM 14C-uric acid, read-out: IC50 (uric acid transport)): 84 ± 3.2 µM
- IC50 ([2]; r-T32C, MES pH 5.5, 100 μM 14C-uric acid, read-out: IC50 (uric acid transport)): 73 ± 5.9 µM
- IC50 ([3]; r-T26V, MES pH 5.5, 100 μM 14C-uric acid, read-out: IC50 (uric acid transport)): 76 ± 2.3 µM

Compound: O=C1C(CC[S+]([O-])c2ccccc2)C(=O)N(c2ccccc2)N1c1ccccc1 (stereo not drawn) [sulfinpyrazone]
- IC50 ([1]; r-V474M, HEPES pH 7.3, 100 μM 14C-uric acid, read-out: IC50 (uric acid transport)): 732 ± 102 µM
- IC50 ([2]; r-T32C, HEPES pH 7.3, 100 μM 14C-uric acid, read-out: IC50 (uric acid transport)): 691 ± 98 µM
- IC50 ([3]; r-T26V, HEPES pH 7.3, 100 μM 14C-uric acid, read-out: IC50 (uric acid transport)): 655 ± 191 µM
